Four molecules from ChEMBL document CHEMBL1938248, “Symmetric dimers of ent-kaurane diterpenoids with cytotoxic activity from Croton tonkinensis” (Bioorg Med Chem Lett, 2012) can be followed below.

The term IC50 denotes the concentration that inhibits the measured activity by half. Low values mean greater potency, high ones weaker potency.

Bounds are passed on as bounds.

What all share (assay type): functional, cell-based
The subject of experiment [1] is MCF7. Kind of experiment: Cytotoxicity against human MCF7 cells by WST-1 assay.
Experiment [2] deals with MCF7. The experiment is described as follows: Cytotoxicity against human tamoxifen-resistant MCF7 cells by WST-1 assay. In general terms: Tetrazolium dyes change colour on reduction, which living cells bring about.
Experiment [3] in a line: Cytotoxicity against human MCF7/ADR cells by WST-1 assay. The note with it: NCI/ADR-RES.
The test system of experiment [4] is MDA-MB-231. The experiment is described as follows: Cytotoxicity against human MDA-MB-231 cells by WST-1 assay.

Take `CC[C@@]1(O)C(=O)OCc2c1cc1n(c2=O)Cc2cc3ccccc3nc2-1` [CAMPTOTHECIN]: the IC50 was 2.6 µM in experiment [1], 1.8 µM in experiment [2], 0.8 µM in experiment [3] and 2.7 µM in experiment [4].

Consider `C[C@]1(CO)CCC[C@]2(C)[C@@H]1C[C@@H](O)[C@@]13C[C@H](CC[C@@H]21)[C@@](O)(CC[C@@]1(O)C(=O)[C@]24C[C@@H]1CC[C@H]2[C@]1(C)CCC[C@](C)(CO)[C@H]1C[C@H]4O)C3=O` [CROTONKINENSIN C], for which the IC50 in experiment [1], in experiment [2], in experiment [3] and in experiment [4] was more than 30 µM in each case.

Turning to `CC(=O)OC[C@@]1(C)CCC[C@]2(C)[C@@H]1C[C@@H](O)[C@@]13C[C@H](CC[C@@H]21)[C@@](O)(CC[C@@]1(O)C(=O)[C@]24C[C@@H]1CC[C@H]2[C@]1(C)CCC[C@](C)(COC(C)=O)[C@H]1C[C@H]4O)C3=O` [CROTONKINENSIN D], the IC50 was determined as 9.4 µM in experiment [1], 2.6 µM in experiment [2], 18.9 µM in experiment [3] and 22 µM in experiment [4].

Take `COc1cccc2c1C(=O)c1c(O)c3c(c(O)c1C2=O)C[C@@](O)(C(=O)CO)C[C@@H]3O[C@H]1C[C@H](N)[C@H](O)[C@H](C)O1` [DOXORUBICIN]: the IC50 in experiment [3] stood at 83.2 µM.
